# Calls of active or inactive are those of the source. The calls are words filed in the database; no cut-off is given here.
# How the values were obtained:
# [1] = target: Epidermal growth factor receptor (Homo sapiens, UniProt P00533, L858R/T790M); experiment: biochemical; type: cell-based, Sf9
# A549 = experiment: Antiproliferative activity against human A549 cells harbouring wild type EGFR incubated for 72 hrs by SRB assay; type: functional, cell-based; conditions: A549, 72 h
# KB = experiment: Antiproliferative activity against human KB cells incubated for 72 hrs by SRB assay; type: functional, cell-based
# NCI-H1975 [2] = experiment: Antiproliferative activity against human NCI-H1975 cells incubated for 72 hrs by MTS assay; type: functional, cell-based; conditions: NCI-H1975, 72 h
# MDA-MB-231 = experiment: Antiproliferative activity against human MDA-MB-231 cells incubated for 72 hrs by SRB assay; type: functional, cell-based; conditions: MDA-MB-231, 72 h
# [3] = target: Epidermal growth factor receptor (Homo sapiens, UniProt P00533, C797S/L858R/T790M); experiment: biochemical; type: cell-based, Sf9
# Sequence of Epidermal growth factor receptor (Homo sapiens, UniProt P00533, C797S/L858R/T790M) (P00533 25-1210 T790M/C797S/L858R limits assumed): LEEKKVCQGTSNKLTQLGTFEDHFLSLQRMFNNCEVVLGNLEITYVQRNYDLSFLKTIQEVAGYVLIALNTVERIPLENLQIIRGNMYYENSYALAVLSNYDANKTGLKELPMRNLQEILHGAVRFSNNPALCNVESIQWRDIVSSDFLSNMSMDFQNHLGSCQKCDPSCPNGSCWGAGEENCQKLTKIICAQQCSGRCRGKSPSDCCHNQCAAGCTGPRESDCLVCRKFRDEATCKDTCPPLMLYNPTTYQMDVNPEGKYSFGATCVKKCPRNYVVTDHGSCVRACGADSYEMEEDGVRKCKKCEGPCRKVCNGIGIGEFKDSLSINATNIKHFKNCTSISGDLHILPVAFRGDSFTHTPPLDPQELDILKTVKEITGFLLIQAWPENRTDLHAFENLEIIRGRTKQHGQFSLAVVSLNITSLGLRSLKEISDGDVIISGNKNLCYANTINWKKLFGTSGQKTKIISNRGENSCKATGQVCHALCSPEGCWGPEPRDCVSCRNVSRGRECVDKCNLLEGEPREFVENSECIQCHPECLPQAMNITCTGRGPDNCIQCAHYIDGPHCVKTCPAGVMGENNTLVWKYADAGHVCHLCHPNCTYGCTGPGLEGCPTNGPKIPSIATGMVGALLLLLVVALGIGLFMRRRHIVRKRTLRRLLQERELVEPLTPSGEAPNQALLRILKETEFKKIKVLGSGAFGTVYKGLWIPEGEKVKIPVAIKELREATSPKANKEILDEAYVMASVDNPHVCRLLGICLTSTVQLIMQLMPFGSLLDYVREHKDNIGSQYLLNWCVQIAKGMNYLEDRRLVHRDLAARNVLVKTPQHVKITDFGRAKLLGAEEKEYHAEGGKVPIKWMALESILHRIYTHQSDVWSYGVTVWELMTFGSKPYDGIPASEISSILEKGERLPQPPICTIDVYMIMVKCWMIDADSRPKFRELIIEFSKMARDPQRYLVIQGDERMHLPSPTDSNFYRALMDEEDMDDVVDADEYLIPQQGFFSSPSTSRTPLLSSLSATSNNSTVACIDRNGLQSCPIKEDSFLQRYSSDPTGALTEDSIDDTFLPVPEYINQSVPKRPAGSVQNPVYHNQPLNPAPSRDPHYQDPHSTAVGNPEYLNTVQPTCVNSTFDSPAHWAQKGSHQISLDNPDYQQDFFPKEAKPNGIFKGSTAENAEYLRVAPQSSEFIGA
# [4] = target: Epidermal growth factor receptor (Homo sapiens, UniProt P00533); experiment: biochemical; type: cell-based, Sf9
# Sequence of Epidermal growth factor receptor (Homo sapiens, UniProt P00533) (P00533 whole entry): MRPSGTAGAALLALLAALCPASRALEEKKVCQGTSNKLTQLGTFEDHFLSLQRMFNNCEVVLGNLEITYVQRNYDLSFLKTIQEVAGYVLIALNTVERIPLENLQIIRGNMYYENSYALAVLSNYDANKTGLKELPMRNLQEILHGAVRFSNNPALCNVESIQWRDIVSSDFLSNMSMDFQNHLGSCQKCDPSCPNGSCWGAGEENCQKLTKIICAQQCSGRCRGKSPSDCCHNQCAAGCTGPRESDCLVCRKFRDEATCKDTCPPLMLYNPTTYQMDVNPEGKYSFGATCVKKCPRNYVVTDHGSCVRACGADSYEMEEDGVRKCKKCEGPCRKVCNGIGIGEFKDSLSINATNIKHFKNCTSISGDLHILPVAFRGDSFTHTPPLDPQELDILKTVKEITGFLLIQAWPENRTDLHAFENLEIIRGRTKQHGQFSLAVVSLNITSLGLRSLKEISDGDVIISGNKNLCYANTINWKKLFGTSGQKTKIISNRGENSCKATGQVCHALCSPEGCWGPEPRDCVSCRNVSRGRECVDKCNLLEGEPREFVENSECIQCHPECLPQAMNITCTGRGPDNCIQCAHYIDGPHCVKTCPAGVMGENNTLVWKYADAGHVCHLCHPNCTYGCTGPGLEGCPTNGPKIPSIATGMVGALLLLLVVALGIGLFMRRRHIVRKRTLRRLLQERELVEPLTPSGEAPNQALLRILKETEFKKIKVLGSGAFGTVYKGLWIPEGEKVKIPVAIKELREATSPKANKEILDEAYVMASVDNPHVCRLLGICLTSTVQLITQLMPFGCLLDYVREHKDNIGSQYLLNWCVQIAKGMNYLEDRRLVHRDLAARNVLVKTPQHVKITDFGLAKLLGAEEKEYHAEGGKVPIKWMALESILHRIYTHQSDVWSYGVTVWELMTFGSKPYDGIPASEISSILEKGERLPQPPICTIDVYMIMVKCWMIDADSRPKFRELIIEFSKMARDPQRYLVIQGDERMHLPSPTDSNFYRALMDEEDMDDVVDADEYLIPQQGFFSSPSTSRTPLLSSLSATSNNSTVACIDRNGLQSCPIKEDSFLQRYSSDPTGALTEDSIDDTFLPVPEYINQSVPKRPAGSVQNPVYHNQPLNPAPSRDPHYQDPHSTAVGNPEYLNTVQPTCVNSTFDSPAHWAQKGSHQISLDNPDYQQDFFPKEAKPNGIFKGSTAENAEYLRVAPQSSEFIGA
# Description: Inhibition of C-terminal His-tagged/ N-terminal GST-tagged recombinant human EGFR (668 to 1210 residues) expressed in a Baculovirus infected Sf9 cell expression system using poly-EY as substrate incubated for 30 mins by ADP-Glo kinase assay
# MCF7 = experiment: Antiproliferative activity against human MCF7 cells incubated for 72 hrs by SRB assay; type: functional, cell-based; conditions: MCF7, 72 h
# NCI-H1975 [5] = experiment: cells; type: functional, cell-based; conditions: Homo sapiens, NCI-H1975, 72 h
# [6] = Antiproliferative activity against human KB-VIN10 cells incubated for 72 hrs by SRB assay; type: functional, cell-based; conditions: KB-VIN10, 72 h
# NCI-H1975 [7] = experiment: Antiproliferative activity against human NCI-H1975 cells assessed as induction of NO production at 100 uM incubated for 150 mins by Griess reagent based assay; type: functional, cell-based
# NCI-H1975 [8] = experiment: Antiproliferative activity against human NCI-H1975 cells assessed as induction of NO production at 25 uM preincubated for 1 hr with hemoglobin followed by compound addition and measured after 48 hrs by Griess reagent based assay; type: functional, cell-based
# Sequence of Epidermal growth factor receptor (Homo sapiens, UniProt P00533, L858R/T790M) (P00533 25-1210 T790M/L858R limits assumed): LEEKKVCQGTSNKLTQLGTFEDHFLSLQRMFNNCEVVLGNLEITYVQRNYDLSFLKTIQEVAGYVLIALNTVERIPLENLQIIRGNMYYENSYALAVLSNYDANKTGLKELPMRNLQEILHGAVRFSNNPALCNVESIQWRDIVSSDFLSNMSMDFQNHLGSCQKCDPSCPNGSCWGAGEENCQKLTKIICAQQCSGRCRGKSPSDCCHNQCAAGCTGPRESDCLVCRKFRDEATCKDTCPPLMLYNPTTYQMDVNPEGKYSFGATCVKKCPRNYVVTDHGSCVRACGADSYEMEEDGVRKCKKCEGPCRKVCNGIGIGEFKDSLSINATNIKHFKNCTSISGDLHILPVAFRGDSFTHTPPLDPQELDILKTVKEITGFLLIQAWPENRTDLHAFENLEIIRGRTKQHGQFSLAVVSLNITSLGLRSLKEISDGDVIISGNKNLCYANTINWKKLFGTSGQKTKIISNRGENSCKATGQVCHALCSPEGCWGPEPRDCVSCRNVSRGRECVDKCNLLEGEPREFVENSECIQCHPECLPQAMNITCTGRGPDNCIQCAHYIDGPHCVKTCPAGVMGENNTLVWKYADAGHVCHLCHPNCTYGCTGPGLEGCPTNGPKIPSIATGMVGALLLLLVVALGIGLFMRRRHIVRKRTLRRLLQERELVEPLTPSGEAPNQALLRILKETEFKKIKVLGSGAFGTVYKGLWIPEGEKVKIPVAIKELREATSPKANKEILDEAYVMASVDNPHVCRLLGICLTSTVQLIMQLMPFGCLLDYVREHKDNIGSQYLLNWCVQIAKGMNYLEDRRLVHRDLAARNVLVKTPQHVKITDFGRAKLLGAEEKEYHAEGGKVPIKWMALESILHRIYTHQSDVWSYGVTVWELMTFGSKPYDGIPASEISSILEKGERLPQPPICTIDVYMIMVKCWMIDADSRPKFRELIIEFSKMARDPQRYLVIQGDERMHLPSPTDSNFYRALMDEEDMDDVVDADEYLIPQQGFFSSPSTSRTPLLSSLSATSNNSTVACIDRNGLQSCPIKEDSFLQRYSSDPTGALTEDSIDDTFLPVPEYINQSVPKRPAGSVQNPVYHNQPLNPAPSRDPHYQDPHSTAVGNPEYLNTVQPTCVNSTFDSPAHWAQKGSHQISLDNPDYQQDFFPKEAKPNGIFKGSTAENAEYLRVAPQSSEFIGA
IC50 (MDA-MB-231),IC50 (MCF7),SMILES,IC50 [1],IC50 (A549),IC50 (KB),IC50 (NCI-H1975 [2]),IC50 [3],IC50 [4],IC50 (NCI-H1975 [5]),IC50 [6],Activity (NCI-H1975 [7]),Activity (NCI-H1975 [8])
7.3 µM,> 10 µM,CC(=O)OC[C@@]1(C)[C@@H]2CC[C@]3(C)[C@H](CC=C4[C@@H]5CC(C)(C)CC[C@]5(C(=O)OCCO[N+](=O)[O-])CC[C@]43C)[C@@]2(C)CC[C@@H]1OC(C)=O,–,5.3 µM,7 µM,–,–,–,–,> 40 µM,Active,–
7.9 µM,6.8 µM,CC(=O)O[C@H]1CC[C@]2(C)[C@H]3CC=C4[C@@H]5CC(C)(C)CC[C@]5(C(=O)OCCO[N+](=O)[O-])CC[C@@]4(C)[C@]3(C)CC[C@H]2C1(C)C,–,6.3 µM,4.9 µM,–,–,–,–,> 10 µM,Active,–
> 10 µM,> 10 µM,CC1(C)CC[C@]2(C(=O)OCCCCCCO[N+](=O)[O-])CC[C@]3(C)C(=CC[C@@H]4[C@@]5(C)CC[C@H](O)[C@@](C)(CO)[C@@H]5CC[C@]43C)[C@@H]2C1,–,> 10 µM,> 10 µM,–,–,–,–,> 40 µM,–,–
5.3 µM,6.4 µM,CC(=O)O[C@H]1CC[C@]2(C)[C@H]3CC=C4[C@@H]5CC(C)(C)CC[C@]5(C(=O)OCCCCCCO[N+](=O)[O-])CC[C@@]4(C)[C@]3(C)CC[C@H]2C1(C)C,–,5 µM,5.1 µM,–,–,–,–,7.6 µM,Active,–
9.2 µM,> 10 µM,CC1(C)CC[C@]2(C(=O)OCCO[N+](=O)[O-])CC[C@]3(C)C(=CC[C@@H]4[C@@]5(C)CC[C@H](O)[C@@](C)(CO)[C@@H]5CC[C@]43C)[C@@H]2C1,–,> 10 µM,9.5 µM,–,–,–,–,> 10 µM,Active,–
> 10 µM,> 10 µM,CC1(C)CC[C@]2(C(=O)OCCCCO[N+](=O)[O-])CC[C@]3(C)C(=CC[C@@H]4[C@@]5(C)CC[C@H](O)C(C)(C)[C@@H]5CC[C@]43C)[C@@H]2C1,–,9.2 µM,> 10 µM,–,–,–,–,> 10 µM,–,–
> 10 µM,> 10 µM,CC1(C)CC[C@]2(C(=O)OCCCCCCO[N+](=O)[O-])CC[C@]3(C)C(=CC[C@@H]4[C@@]5(C)CC[C@H](O)C(C)(C)[C@@H]5CC[C@]43C)[C@@H]2C1,–,> 10 µM,> 10 µM,–,–,–,–,> 10 µM,–,–
5.1 µM,4.6 µM,CC(=O)OC[C@@]1(C)[C@@H]2CC[C@]3(C)[C@H](CC=C4[C@@H]5CC(C)(C)CC[C@]5(C(=O)OCCCCCCO[N+](=O)[O-])CC[C@]43C)[C@@]2(C)CC[C@@H]1OC(C)=O,–,4.7 µM,4.8 µM,–,–,–,–,4.9 µM,Active,–
> 10 µM,> 10 µM,CC(=O)O[C@H]1CC[C@]2(C)[C@H]3CC=C4[C@@H]5CC(C)(C)CC[C@]5(C(=O)O)CC[C@@]4(C)[C@]3(C)CC[C@H]2C1(C)C [ACETYL OLEANOLIC ACID],–,5.8 µM,7.6 µM,–,–,–,–,7.6 µM,–,–

# More lines, now with the values behind:
SMILES,IC50 (MDA-MB-231),IC50 (MCF7),IC50 [1],IC50 (A549),IC50 (KB),IC50 (NCI-H1975 [2]),IC50 [3],IC50 [4],IC50 (NCI-H1975 [5]),IC50 [6],Activity (NCI-H1975 [7]),Activity (NCI-H1975 [8])
CC1(C)CC[C@]2(C(=O)OCCCCO[N+](=O)[O-])CC[C@]3(C)C(=CC[C@@H]4[C@@]5(C)CC[C@H](OC(=O)c6ccccc6)C(C)(C)[C@@H]5CC[C@]43C)[C@@H]2C1,> 10 µM,> 10 µM,> 20 µM,> 10 µM,> 10 µM,> 10 µM,> 20 µM,> 20 µM,> 10 µM,> 10 µM,–,–
CC(=O)O[C@H]1CC[C@]2(C)[C@H]3CC=C4[C@@H]5CC(C)(C)CC[C@]5(C(=O)OCCCCO[N+](=O)[O-])CC[C@@]4(C)[C@]3(C)CC[C@H]2C1(C)C,5.4 µM,5.2 µM,> 20 µM,4.8 µM,5.3 µM,> 10 µM,0.02 µM,0.1 µM,> 10 µM,5.1 µM,Active,inactive
CC1(C)CC[C@]2(C(=O)OCCCCO[N+](=O)[O-])CC[C@]3(C)C(=CC[C@@H]4[C@@]5(C)CC[C@H](OCc6ccccc6)C(C)(C)[C@@H]5CC[C@]43C)[C@@H]2C1,> 10 µM,> 10 µM,> 20 µM,> 10 µM,> 10 µM,> 10 µM,> 20 µM,> 20 µM,> 10 µM,> 10 µM,–,–
CC1(C)CC[C@]2(C(=O)OCCCCO[N+](=O)[O-])CC[C@]3(C)C(=CC[C@@H]4[C@@]5(C)CC[C@H](OC(=O)c6ccc([N+](=O)[O-])cc6)C(C)(C)[C@@H]5CC[C@]43C)[C@@H]2C1,–,–,> 20 µM,–,–,> 10 µM,> 20 µM,> 20 µM,> 10 µM,–,–,–
CC1(C)CC[C@]2(C(=O)O)CC[C@]3(C)C(=CC[C@@H]4[C@@]5(C)CC[C@H](O)[C@@](C)(CO)[C@@H]5CC[C@]43C)[C@@H]2C1 [HEDERAGENIN],> 10 µM,> 10 µM,> 20 µM,> 10 µM,> 10 µM,> 10 µM,> 20 µM,> 20 µM,> 10 µM,> 10 µM,–,–
COc1cc(N2CCC(N3CCN(C)CC3)CC2)ccc1Nc1ncc(Cl)c(Nc2ccccc2P(C)(C)=O)n1 [BRIGATINIB],–,–,–,–,–,0.62 µM,–,–,0.64 µM,–,–,–
CC1(C)CC[C@]2(C(=O)O)CC[C@]3(C)C(=CC[C@@H]4[C@@]5(C)CC[C@H](O)C(C)(C)[C@@H]5CC[C@]43C)[C@@H]2C1 [OLEANOLIC_ACID],> 10 µM,> 10 µM,> 20 µM,6.4 µM,> 10 µM,> 10 µM,> 20 µM,> 20 µM,> 10 µM,> 10 µM,–,–
CC(=O)OC[C@@]1(C)[C@@H]2CC[C@]3(C)[C@H](CC=C4[C@@H]5CC(C)(C)CC[C@]5(C(=O)OCCCCO[N+](=O)[O-])CC[C@]43C)[C@@]2(C)CC[C@@H]1OC(C)=O,5.2 µM,5 µM,> 20 µM,4.6 µM,5.1 µM,8.1 µM,0.01 µM,0.06 µM,7.6 µM,4.8 µM,Active,inactive
CC1(C)CC[C@]2(C(=O)OCCO[N+](=O)[O-])CC[C@]3(C)C(=CC[C@@H]4[C@@]5(C)CC[C@H](O)C(C)(C)[C@@H]5CC[C@]43C)[C@@H]2C1,5.5 µM,5.5 µM,> 20 µM,4.7 µM,5 µM,> 10 µM,0.03 µM,0.11 µM,> 10 µM,6.4 µM,Active,–
C=CC(=O)O[C@H]1CC[C@]2(C)[C@H]3CC=C4[C@@H]5CC(C)(C)CC[C@]5(C(=O)OCCCCO[N+](=O)[O-])CC[C@@]4(C)[C@]3(C)CC[C@H]2C1(C)C,> 10 µM,> 10 µM,> 20 µM,> 10 µM,> 10 µM,> 10 µM,> 20 µM,> 20 µM,> 10 µM,> 10 µM,–,–
CC(=O)OC[C@@]1(C)[C@@H]2CC[C@]3(C)[C@H](CC=C4[C@@H]5CC(C)(C)CC[C@]5(C(=O)O)CC[C@]43C)[C@@]2(C)CC[C@@H]1OC(C)=O,> 10 µM,> 10 µM,–,–,–,–,–,–,–,8.5 µM,–,–
CC(=O)O[C@H]1C(=O)[C@@]2(C)[C@H]([C@H](OC(=O)c3ccccc3)[C@]3(O)C[C@H](OC(=O)[C@H](O)[C@@H](NC(=O)c4ccccc4)c4ccccc4)C(C)=C1C3(C)C)[C@]1(OC(C)=O)CO[C@@H]1C[C@@H]2O [PACLITAXEL],–,> 10 µM,–,–,–,–,–,–,–,> 10 µM,–,–
CC1(C)CC[C@]2(C(=O)OCCCCO[N+](=O)[O-])CC[C@]3(C)C(=CC[C@@H]4[C@@]5(C)CC[C@H](O)[C@@](C)(CO)[C@@H]5CC[C@]43C)[C@@H]2C1,> 10 µM,8 µM,> 20 µM,9.3 µM,> 10 µM,> 10 µM,0.04 µM,0.19 µM,> 10 µM,> 10 µM,Active,–
CC1(C)CC[C@]2(C(=O)OCCCCO[N+](=O)[O-])CC[C@]3(C)C(=CC[C@@H]4[C@@]5(C)CC[C@H](OC(=O)/C=C/c6ccc7c(c6)OCO7)C(C)(C)[C@@H]5CC[C@]43C)[C@@H]2C1,–,–,> 20 µM,–,–,> 10 µM,> 20 µM,> 20 µM,> 10 µM,–,–,–
